Structures can show the parent of a compound that is named as a salt.
Tests used:
[1] = test system: human breast cancer cell BT-474; assay: Inhibitory action on breast cancer cell BT-474 proliferation in vitro; type: cell-based; conditions: 120 h, BT-474 cells, cultured 5 days with compound, SRB staining of cell protein
Description: A suspension of human breast cancer cell BT-474 (100 μl (6,000 cells)) were plated to 96-well microplate and cultured in an incubator (37° C., 5% carbon dioxide). On the following day, 100 μl of a solution of each test compound previously diluted serially in 2-fold, was added to give indicated dose, and the cells were cultured for 5 days. The culture medium containing the test compound was removed, and the cells were washed, and fixed with 50% trichloroacetic acid, and 0.4% w/v) SRB solution (dissolved in 1% acetic acid) was added to stain the cell protein (Skehan et al., Journal of the National Cancer Institute, Vol. 82, pp. 1107-1112, 1990). After washing with a 1% acetic acid solution, 100 μl of Tris solution (10 mM) was added to extract the pigment and the absorbance was measured at a wavelength of 550 nm to quantify the amount of cells as protein content. Taking as 100% the protein content for the control group, which received no test compound solution, the ratio of the residual protein content for each treatment group was determined, and the compound concentration required to achieve 50% suppression of the residual cell content relative to the control (IC50 value) was calculated.

[2] = biological target: T1, EGFR intracellular domain (Homo sapiens, UniProt P00533); assay: Assay of EGFR kinase inhibitory activity; type: biochemical; conditions: compound 1.0 μM, poly-Glu:Tyr (4:1) substrate, [γ-32P]ATP, read-out: Inhibitory rate (%) at 1.0 μM
T1 construct: made in house; host or cells: SF-21 insect cells infected with recombinant baculovirus BAC-EGFR
T1 sequence (P00533 669-1210): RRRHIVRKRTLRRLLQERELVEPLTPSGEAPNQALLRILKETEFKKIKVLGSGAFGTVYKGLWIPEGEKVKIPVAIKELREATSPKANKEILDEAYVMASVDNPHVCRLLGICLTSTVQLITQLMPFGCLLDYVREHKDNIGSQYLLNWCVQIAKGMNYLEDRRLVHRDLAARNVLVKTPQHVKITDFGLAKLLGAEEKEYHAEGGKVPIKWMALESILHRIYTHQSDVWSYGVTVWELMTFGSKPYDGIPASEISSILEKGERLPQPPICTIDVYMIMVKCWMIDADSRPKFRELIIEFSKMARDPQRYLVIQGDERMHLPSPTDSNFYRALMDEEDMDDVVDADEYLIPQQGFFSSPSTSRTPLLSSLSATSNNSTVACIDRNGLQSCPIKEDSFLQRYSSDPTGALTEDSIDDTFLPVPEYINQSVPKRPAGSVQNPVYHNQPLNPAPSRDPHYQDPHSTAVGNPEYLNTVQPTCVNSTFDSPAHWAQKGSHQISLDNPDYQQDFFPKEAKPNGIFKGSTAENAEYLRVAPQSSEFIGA
Description: Human EGFR gene was cloned by RT-PCR using total RNA prepared from A431 cell as a template. The primer used for RT-PCR was prepared from base sequence (Genbank Accession No. X00588) information of EGFR gene, adding DYKDDDD base sequence encoding the peptide and a restriction enzyme recognition sequence to a base sequence (2191-3819 of Genbank Accession No. X00588 as a base, and corresponding to 669-1210 amino acid of Genbank Accession No. NP_005219 as a protein) encoding the EGFR intracellular domain, so that a DYKDDDD peptide tag would be attached to the N-terminus of the protein. The base sequence of the primer is shown in below.
The RT reaction was performed using Superscript First-Strand Synthesis System for RT-PCR (Invitrogen), and PCR reaction was performed using KOD-plus kit (TOYOBO). The obtained PCR product was electrophoresed on agarose gel (1%), and the DNA fragment amplified by PCR was recovered from the gel, and then digested with restriction enzymes Sal I and Sph I. The DNA treated with the restriction enzymes was electrophoresed on agarose gel (1%), and the obtained DNA fragment was recovered and ligated to plasmid pFASTBAC1 (Invitrogen) digested with restriction enzymes Sal I and Sph I to give expression plasmid pFB-EGFR. The base sequence of the inserted fragment was confirmed and found to be identical with the base sequence of the EGFR intracellular domain (2191-3819 of Genbank Accession X00588). Furthermore, virus stock BAG-EGFR of recombinant Baculovirus was prepared using BAC-TO-BAC Baculovirus Expression System (Invitrogen).
SF-21 cells were sown at 1×10^6 cells/mL to 1 L of Sf-900II SFM medium (Invitrogen) containing 10% fetal calf serum (trace), 50 mg/L Gentamicin (Invitrogen) and 0.1% Pluronic F-68 (Invitrogen), and cultured with shaking in a 2 L Erlenmeyer flask at 27° C., 100 rpm. After culture for 24 hr, recombinant Baculovirus BAC-EGFR (13.4 mL) was added thereto, and the cells were further cultured for 3 days. The culture medium was centrifuged at 2,000 rpm for 5 min to give virus infected cells. The infected cells were washed with phosphate buffered saline (Invitrogen), centrifuged under the same conditions, and preserved at −80° C. The cryopreserved cells were thawed in ice and suspended in 30 mL of buffer A containing Complete Protease Inhibitor (Boehringer) (50 mM tris buffer (pH 7.4) containing 20% Glycerol, 0.15 M NaCl). The cells were disrupted 3 times at 20,000 rpm for 30 sec using a polytron homogenizer (Kinematica). The disrupt was clarified by centrifugation at 40,000 rpm for 30 min and filtered through a 0.45 μm filter. The filtrate was passed through a column packed with 4 mL of Anti-FLAG M2 Affinity Gel (Sigma Aldrich Co.) at a flow rate of about 0.5 mL/min. The column was washed with buffer A, and eluted with buffer A containing 100 μg/mL of FLAG peptide. The eluate was concentrated with Vivaspin 20 having a molecular weight cut off of 30 K (Vivascience). The concentrate was purified by gel filtration using Hi-Load 16/60 Superdex 200 pg (GE Healthcare Bioscience) equilibrated with buffer A. The fractions containing EGFR intracellular domain were collected and cryopreserved at −80° C.
EGFR kinase reaction was carried out using a 96-well plate. As a buffer for Kinase reaction, a buffer of a composition of 50 mM Tris-HCl (pH 7.5), 5 mM MnCl2, 2 mM dithiothreitol and 0.01% Tween-20 was used. […]

[3] = biological target: T2, HER2 intracellular domain (Homo sapiens, UniProt P04626); assay: Measurement of HER2 kinase inhibitory activity; type: biochemical; conditions: compound 1.0 μM, poly-Glu:Tyr (4:1) substrate, [γ-32P]ATP, read-out: Inhibitory rate (%) at 1.0 μM
T2 construct: made in house; host or cells: SF-21 insect cells infected with recombinant baculovirus BAC-HER2
T2 sequence (P04626 676-1255): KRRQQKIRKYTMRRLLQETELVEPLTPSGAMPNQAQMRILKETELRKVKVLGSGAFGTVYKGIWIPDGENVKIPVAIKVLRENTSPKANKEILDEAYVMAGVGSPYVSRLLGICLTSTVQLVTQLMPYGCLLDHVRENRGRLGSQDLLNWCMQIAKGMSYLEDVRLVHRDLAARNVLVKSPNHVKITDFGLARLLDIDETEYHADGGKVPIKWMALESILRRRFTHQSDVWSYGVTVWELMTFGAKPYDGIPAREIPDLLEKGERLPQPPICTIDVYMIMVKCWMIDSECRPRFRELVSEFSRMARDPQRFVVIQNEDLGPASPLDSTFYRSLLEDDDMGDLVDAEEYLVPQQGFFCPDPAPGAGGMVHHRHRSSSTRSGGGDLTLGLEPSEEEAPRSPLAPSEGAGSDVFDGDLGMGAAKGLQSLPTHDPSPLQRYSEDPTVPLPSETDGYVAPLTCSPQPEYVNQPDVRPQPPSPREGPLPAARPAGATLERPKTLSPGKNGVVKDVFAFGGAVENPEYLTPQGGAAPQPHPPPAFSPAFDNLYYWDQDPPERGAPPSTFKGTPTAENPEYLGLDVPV
Description: Human HER2 gene was cloned by RT-PCR using total RNA prepared from MCF7 cells as a template. The primer used for RT-PCR was prepared from base sequence (Genbank Accession No. M11730) information of HER2 gene, adding base sequence encoding DYKDDDD peptide and a restriction enzyme recognition sequence to a nucleotide sequence (2176-3918 of Genbank Accession No. M11730 as a base, and corresponding to 676-1255 amino acid of Genbank Accession No. NP_004439 as a protein) encoding the HER2 intracellular domain region, so that a DYKDDDD peptide tag would be attached to the N-terminus of the protein. The base sequence of the primer is shown in below.
The RT reaction was performed using Superscript First-Strand Synthesis System for RT-PCR (Invitrogen) and the PCR reaction was performed using KOD-plus kit (TOYOBO). The obtained PCR product was electrophoresed on agarose gel (1%), and the DNA fragment amplified by PCR was recovered from the gel, and then digested with restriction enzymes Sal I and Sph I. The DNA treated with the restriction enzymes was electrophoresed on agarose gel (1%), and the obtained DNA fragment was recovered and ligated to plasmid pFASTBAC1 (Invitrogen) digested with restriction enzymes Sal I and Sph I to give expression plasmid pFB-HER2. The base sequence of the inserted fragment was confirmed and found to be identical with the base sequence of HER2 intracellular domain (2176-3918 of Genbank Accession M11730). Furthermore, using BAC-TO-BAC Baculovirus Expression System (Invitrogen), recombinant baculovirus BAC-HER2 was prepared.
SF-21 cells were sown at 1×10^6 cells/mL to 1 L of Sf-900II SFM medium (Invitrogen) containing 10% fetal calf serum (trace), 50 mg/L gentamicin (Invitrogen) and 0.1% Pluronic F-68 (Invitrogen), and cultured with shaking in 2 L volume Erlenmeyer flask at 27° C., 100 rpm. After culturing for 24 hr, recombinant baculovirus BAC-HER2 (13.4 mL) was added thereto, and the cells were further cultured for 3 days. The culture medium was centrifuged at 2,000 rpm for 5 min to give virus-infected cells. The infected cells were washed with phosphate buffered saline (Invitrogen), centrifuged under the same conditions, and preserved at −80° C. The cryopreserved cells were thawed in ice and suspended in buffer A (50 mM Tris buffer (30 mL, pH 7.4) containing 20% glycerol, 0.15 M NaCl) supplemented with Complete Protease Inhibitor (Boehringer). The cells were ruptured 3 times with a Polytron homogenizer (Kinematica) at 20,000 rpm for 30 sec. The disrupt was clarified by centrifugation at 40,000 rpm for 30 min and filtered with a 0.45 μm filter. The filtrate was passed through a column packed with Anti-FLAG M2 Affinity Gel (4 mL, Sigma Aldrich CO.) at a flow rate of about 0.5 mL/min. The column was washed with buffer A, and eluted with buffer A containing 100 μg/mL of FLAG peptide. The eluate was concentrated with Vivaspin 20 (Vivascience) having a molecular weight cut off of 30K. The concentrate was purified by gel filtration using Hi-Load 16/60 Superdex 200pg (GE Healthcare Bioscience) equilibrated with buffer A. The fractions containing HER2 intracellular domain were collected and cryopreserved at −80° C.
HER2 kinase reaction was carried out using 96-well plate. As a buffer for Kinase reaction, a buffer of a composition of 50 mM Tris-HCl (pH 7.5), 5 mM MnCl2, 2 mM dithiothreitol and 0.01% Tween-20 was used. The compound of the present invention was dissolved in dimethyl sulfoxide (DMSO), and diluted with a buffer for kinase reaction so that the DMSO concentration would become 0.1% during kinase reaction. The compound solution (10 μL) was mixed with a buffer for kinase reaction (20 μL) containing the HER2 intracellular domain (0.625 μg/mL) obtained in Experimental Example 1B and a polypeptide substrate poly-Glu:Tyr (4:1) (12.5 μg/mL, Sigma Ltd.) and the mixture was stood for 5 min at room temperature. […]

Structure (SMILES) | IC50 [1] | inhibition at 1 µM [2] | inhibition at 1 µM [3]
O=C(NCCOCCO)C1=Cc2c(ncnc2Nc2ccc(Oc3cccc(C(F)(F)F)c3)c(Cl)c2)NCC1 [Example 119, 4-({3-chloro-4-[3-(trifluoromethyl)phenoxy]phenyl}amino)-N-[2-(2-hydroxyethoxy)ethyl]-8,9-dihydro-7H-pyrimido[4,5-b]azepine-6-carboxamide] | < 100 nM | 96% | –
COCCOCCNC(=O)C1=Cc2c(ncnc2Nc2ccc(Oc3cccc(C(F)(F)F)c3)c(Cl)c2)NCC1 [Example 122, 4-({3-chloro-4-[3-(trifluoromethyl)phenoxy]phenyl}amino)-N-[2-(2-methoxyethoxy)ethyl]-8,9-dihydro-7H-pyrimido[4,5-b]azepine-6-carboxamide] | < 100 nM | – | 96%
O=C(NCCOCCO)C1=Cc2c(ncnc2Nc2ccc(Oc3cccc(Cl)c3)c(Cl)c2)NCC1 [Example 143, 4-{[3-chloro-4-(3-chlorophenoxy)phenyl]amino}-N-[2-(2-hydroxyethoxy)ethyl]-8,9-dihydro-7H-pyrimido[4,5-b]azepine-6-carboxamide hydrochloride] | < 100 nM | 97% | –
O=C(NCCS(=O)(=O)CCO)C1=Cc2c(ncnc2Nc2ccc(Oc3cccc(C(F)(F)F)c3)c(Cl)c2)NCC1 [Example 147, 4-({3-chloro-4-[3-(trifluoromethyl)phenoxy]phenyl}amino)-N-{2-[(2-hydroxyethyl)sulfonyl]ethyl}-8,9-dihydro-7H-pyrimido[4,5-b]azepine-6-carboxamide] | – | 95% | –
